From publication PMC12396291, “DNA-encoded library screening uncovers potent DNMT2 inhibitors targeting a cryptic allosteric binding site” (iScience, 2025)
Where “and” joins values, the source holds several entries; their conditions need not be identical. Equal values may be shown once. Entries after “also recorded” stand apart in the source; their conditions may differ. Each block holds one compound with its values, some of them ahead of it.

Key:
[1] = ATP-quantifying cell viability assay, 48 h; type: cell-based; details: human, MOLM-13, HCT, Huh-7, MDA-MB-231 and HEK293 cells, all cell lines
MOLM-13 cells = assay: Cell viability assay, doxorubicin co-treatment; type: cell-based; details: Homo sapiens; MOLM-13, doxorubicin 48 h; read-out: CC50 (only doxorubicin)
Description: Cell viability assays were conducted with MOLM-13 cells, Huh-7, MDA-MB-231, HEK293, and HCT MTase mutant cell lines (WT, knock-down DNMT2, and knock-down NSUN2) to investigate the DNMT2 inhibiting compounds’ cellular effect. Cells were cultured according to standard protocols: MOLM-13 (RPMI, 10% FBS, 1x Penicillin/Streptomycin, 37 °C, 5% CO2), Huh-7/MDA-MB-231/HEK293 (DMEM, 10% FBS, 1x Penicillin/Streptomycin, 37 °C, 5% CO2) and HCT (McCoys’s 5A Medium, 10% FBS, L-Glutamine, 1x Penicillin/Streptomycin, 37 °C, 5% CO2). Cell viability was assessed using Promega Cell Titer Glo assay kit (MOLM-13, Huh-7, MDA-MB-231, HEK293) or Lonza ViaLight Plus Cell Proliferation and Cytotoxicity BioAssay Kit (HCT cell lines). Briefly, 1000 cells were seeded in white Greiner half-area 96-well plates and incubated for 48 h with inhibitors/ligands from DMSO stocks (final: 0.1% DMSO) under standard cultivation conditions. Then, the cell titer reagent was added to each well according to the manufacturer’s protocols, and luminescence was measured using a Tecan Spark 10M plate reader (MOLM-13, Huh-7, MDA-MB-231, HEK293) or Molecular Devices FlexStation (HCT cell lines).

[2] = Solubility remark from ITC titration; type: physicochemical; details: ITC buffer, remark in words
Description: (§1) The DNMT2 protein was purified via size exclusion chromatography eluting in isothermal titration calorimetry (ITC) buffer (50 mM sodium phosphate pH 8.0, 300 mM NaCl, 1 mM EDTA, 2 mM β-mercaptoethanol, 0.1% polysorbate-20) and directly used for measurements.[3] All compounds were dissolved in DMSO to a concentration of 5 mM and were then diluted in ITC buffer to a final concentration of 500 μM. DNMT2 was diluted to a final concentration of 50 μM with 10% DMSO to match the ligand stocks' DMSO concentration. For the ITC measurements, a MicroCal PEAQ-ITC Automated workstation (Malvern Panalytical) with a 200 μL Hastelloy cell and an injection syringe volume of 40 μL was used. All experiments were performed in triplicates at 25 °C unless otherwise noted. For each measurement, 19 compound injections (2 μL each) with an injection speed of 0.5 μL/s were added to the reaction cell containing DNMT2. The spacing time between sequential injections was 300 s, and the stirring speed was set to 750 rpm with a reference power of 42 μW. As control experiments, ligands were titrated into ITC buffer. Data analysis and fitting were carried out using the MicroCal PEAQ-ITC Analysis Software 1.21 and plotted in GraphPad Prism 8.0.1.

DNMT2-NonO interaction = molecular target: T1, DNMT2-NonO interaction (Homo sapiens, UniProt O14717); assay: Pull-down competition assay; type: binding; details: 100 μM SFG, 100 μM 16 or 10 μM tRNA^Asp
T1 construct: Recombinant human DNMT2 (full-length); host or cells: E. coli (DNMT2)
T1 sequence (O14717 1-391): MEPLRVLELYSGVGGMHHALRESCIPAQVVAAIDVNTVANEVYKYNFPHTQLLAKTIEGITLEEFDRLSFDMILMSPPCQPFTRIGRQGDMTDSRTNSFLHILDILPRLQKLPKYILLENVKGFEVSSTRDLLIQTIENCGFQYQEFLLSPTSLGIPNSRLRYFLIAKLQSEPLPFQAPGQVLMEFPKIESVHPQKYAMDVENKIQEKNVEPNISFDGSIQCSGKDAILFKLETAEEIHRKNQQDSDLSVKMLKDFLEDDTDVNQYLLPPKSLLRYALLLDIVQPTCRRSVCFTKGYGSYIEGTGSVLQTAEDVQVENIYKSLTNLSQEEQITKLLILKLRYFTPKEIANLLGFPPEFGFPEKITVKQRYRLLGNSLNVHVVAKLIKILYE
T1 sequence (Q15233 1-471 partner): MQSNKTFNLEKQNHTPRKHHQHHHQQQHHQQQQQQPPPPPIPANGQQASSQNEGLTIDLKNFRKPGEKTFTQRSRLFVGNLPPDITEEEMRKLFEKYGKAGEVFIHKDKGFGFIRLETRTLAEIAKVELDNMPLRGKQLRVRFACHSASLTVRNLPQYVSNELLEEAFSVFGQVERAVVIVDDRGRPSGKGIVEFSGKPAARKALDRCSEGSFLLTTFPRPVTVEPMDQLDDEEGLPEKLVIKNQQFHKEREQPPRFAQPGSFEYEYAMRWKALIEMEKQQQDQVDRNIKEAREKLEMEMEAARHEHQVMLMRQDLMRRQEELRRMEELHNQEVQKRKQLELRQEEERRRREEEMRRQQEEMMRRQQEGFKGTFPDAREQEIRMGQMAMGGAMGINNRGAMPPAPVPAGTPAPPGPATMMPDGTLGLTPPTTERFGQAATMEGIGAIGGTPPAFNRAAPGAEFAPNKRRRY
Description: (§3) For immobilization on streptavidin beads, DNMT2 was biotinylated using the EZ-Link Sulfo-NHS-LC-Biotinylation kit. A 20-fold excess of Sulfo-NHS-LC-Biotin (10 mM in water) was added to DNMT2 and incubated for 2 h on ice. […] The biotinylation level was estimated using a HABA assay included in the kit according to the manufacturer’s protocols.
(§4) For in vitro pull-down assays, biotinylated DNMT2 was immobilized on streptavidin-coated paramagnetic beads (GenScript Streptavidin MagBeads). For this, beads were washed with PBS buffer containing 0.05% Triton X-100, and subsequently, DNMT2 (30 μg per 50 μL beads) was immobilized for 45 min at RT. As a negative control, beads were treated with a protein-free buffered solution. Beads were washed with PBS buffer, and for each sample, 5 μL beads were added to either 1.5 μg of recombinant NonO protein (Active Motif) or 3.0 μg of recombinant eIF4E protein (Cayman). Beads were incubated for 1 h at RT, and subsequently, the supernatant was removed. […] The samples were incubated for 45 min at RT, and the supernatant was treated with 2 μL 5× Laemmli buffer. […] All samples were heated to 95 °C for 10 min and analyzed via SDS-PAGE. […] Protein bands were visualized using a GE Healthcare Typhoon Trio biomolecular scanner, with laser excitation at 488 nm and fluorescence detection at 580 nm.

DNMT2-eIF4E interaction = molecular target: T2, DNMT2-eIF4E interaction (Homo sapiens, UniProt O14717); assay: Pull-down competition assay; type: binding; details: 100 μM sinefungin, 100 μM 16 or 10 μM tRNA^Asp
T2 construct: Recombinant human DNMT2 (full-length); host or cells: E. coli (DNMT2)
T2 sequence (P06730 whole entry partner, one chain of several): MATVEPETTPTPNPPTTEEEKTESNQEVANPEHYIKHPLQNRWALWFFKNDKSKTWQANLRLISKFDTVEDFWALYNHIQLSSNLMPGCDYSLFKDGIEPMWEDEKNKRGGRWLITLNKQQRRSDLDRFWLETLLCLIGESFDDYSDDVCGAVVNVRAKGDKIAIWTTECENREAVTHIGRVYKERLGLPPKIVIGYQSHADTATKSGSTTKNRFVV
Description: as §3, §4

[3] = Parallel artificial membrane permeation assay (PAMPA); type: in vitro ADME; details: 7 h incubation, duplicates
Description: To determine the passive permeability of selected DNMT2 ligands, a parallel artificial membrane permeation assay (PAMPA) was performed as described previously.[68] The experiment was performed in duplicates with Sigma-Aldrich MAIPNTR10 donor plates with 5 μL of an artificial membrane (1% w/v L-α-phosphatidylcholine in n-dodecane) per well. After incubation for 7 h, the acceptor solutions were evaluated by LC/MS (HP Agilent 1100 Series). The peak areas in the UV chromatogram (λ = 210 nm) were used to calculate the areas under the curve (AUCs).

DNMT2 [4] = molecular target: T3, DNMT2 (Homo sapiens, UniProt O14717); assay: ^3H-based methyltransferase enzyme activity assay (^3H-SAM incorporation into tRNA^Asp); type: biochemical
T3 construct: Recombinant human DNMT2 (full-length); His-tag; made in house; host or cells: E. coli
T3 sequence (O14717 1-391): T1 sequence (O14717 1-391)
Description: Enzymatic DNMT2 inhibition assays were carried out in 100 mM Tris-HCl, pH 8.0, 100 mM NH4OAc, 0.1 mM EDTA, 10 mM MgCl2, and 10 mM DTT as described previously.[3]^,[4] First, the tRNA^Asp substrate was heated to 75 °C for 5 min and cooled down to room temperature (RT) before it was added to the reaction mixture to a final concentration of 5 μM. The reaction mixture contained 250 nM DNMT2 and the ligand compounds at variable concentrations (5% DMSO). Enzymatic reactions were started by the addition of 0.9 μM SAM as a mixture of ^3H-SAM (Hartmann Analytics) resp. cold SAM (NEB) to a final activity of 0.025 μCi μL^−1. Enzyme assays were carried out for 30 min at 37 °C. As a negative control served the reaction mixture without DNMT2 and as a positive control the reaction mixture without test compound. After 30 min, aliquots of 8 μL were taken from the reaction mixture and spotted on Whatman glass microfiber filters (GF/C, 25 mm). The RNA was precipitated on the filters with 5% ice-cold TCA for 15 min. […] Scintillation was measured with a scintillation counter (TriCarb Liquid Scintillation Analyzer 4810 TR; measurement time of 1 min). For IC50-value determination, compounds were analyzed at a minimum of six different concentrations in triplicates. IC50-values were calculated, evaluated, and plotted in GraphPad Prism 8.0.1.

DNMT2 [5] = molecular target: T3, DNMT2; assay: MST displacement assay with fluorescent FTAD probe; type: binding; set-up: Fnorm (MST screening): unit not given here
Description: (§2) Screening for ligand binding and evaluation of dose-response affinity profiles was performed via microscale thermophoresis (MST) as described previously.[42] The measurements were conducted with a Nanotemper Technologies Monolith NT.115 device. All samples were measured in Monolith standard capillaries at 25 °C. The acquisition mode was set to “Nano-Blue” with an excitation power of 30% and a medium MST power, while the system was controlled using the software MO.Control (version 1.6.1) and for evaluation MO.Affinity Analysis (version 2.3) was used. The samples contained 2 μM DNMT2, 100 nM FTAD (5-FAM-triazolyl-adenosyl-Dab) probe, and 1.3% DMSO in MST buffer (50 mM HEPES, 150 mM NaCl, 1 mM dithiothreitol (DTT), 0.1% PEG-8000, 0.05% polysorbate-20, pH 7.4).[42] All compounds were employed at a final concentration of 100 μM for the initial ligand screening.

DNMT2 in MOLM-13 cells = molecular target: T4, DNMT2 in MOLM-13 cells (Homo sapiens, UniProt O14717); assay: Cellular thermal shift assay (CETSA); type: cell-based; details: MOLM-13, 50 μM, 16 h
T4 construct: engages DNMT2 in the MOLM-13 cellular environment, we performed cellular thermal shift assays (CETSA); endogenous in cells; host or cells: MOLM-13
T4 sequence (O14717 1-391): T1 sequence (O14717 1-391)
Description: After incubation for 16 h (37 °C, 5% CO2), the cell suspensions were collected. The cells were washed twice and then counted, followed by the addition of 1 mL PBS. The cell suspension was divided into eight parts, and then heated for 4 min at various temperatures (40, 43, 46, 49, 52, 55, 58 °C) in a PCR thermocycler. The cells were lysed through a freeze-thaw process using liquid nitrogen. The supernatant solutions were used for immunoblotting analysis. […] Proteins were separated by SDS−PAGE on 4–20% Criterion TGX Precast Protein Gels (Bio-Rad) and transferred to Amersham Protean 0.45 μm nitrocellulose membrane (Cytiva) using semi-dry transfer (25 V, 1 A, Towbin buffer). […] Subsequently, the membrane was incubated for 3 h at RT with IRDye 680RD Goat anti-Rabbit (1:1000, LICOR, 926–68071). Protein bands were visualized using a GE Healthcare Typhoon Trio biomolecular scanner, with laser excitation at 637 nm and fluorescence detection at 670 nm. The ImageLab software (Bio-Rad) was used for band quantification.

DNMT2 [6] = molecular target: T3, DNMT2; assay: Affinity selection-mass spectrometry (AS-MS); type: binding; details: 5 μM DNMT2, label-free
Description: Orthogonal KD-value determination for compound 3 was conducted by an affinity selection-mass spectrometry (AS-MS) assay according to Prudent et al.[43] and Simon et al.[67] Compound 3 was dissolved in DMSO (20 mM) and a dilution series in Tris buffer (25 mM Tris, 100 mM NaCl, pH 7.5) was prepared to give final ligand concentrations of 100 μM, 50 μM, 25 μM, 12.5 μM, 6.25 μM, 3.12 μM, 1.56 μM, and 0 μM. DNMT2 was diluted in Tris buffer (130 μM) and added to the dilution series to give a final concentration of 5 μM DNMT2. Zeba Spin Desalting columns 7K MWCO were used for the affinity-based separation. These columns were centrifuged at 2000g for 1 min to remove the storage buffer. 20 μL of the prepared samples were loaded to the columns, and the protein-ligand complex was eluted by centrifugation at 2000g for 2 min. The centrifuged solutions were diluted with 10 μL ACN and analyzed by LC/MS with an Agilent 1100 Series HPLC system. The data evaluation and subsequent binding affinity determination were performed with MestReNova (version 14.0.1) and GraphPad Prism 8.0.1.

DNMT2 [7] = molecular target: T3, DNMT2; assay: Isothermal titration calorimetry (ITC), direct titration; type: binding; details: direct titration at 25 °C; n.b. = no enthalpy signal observable
Description: as §1

DNMT2Δ47 = molecular target: T5, DNMT2Δ47 (Homo sapiens, UniProt O14717, DEL191-237); assay: MST FTAD assay with deletion mutant; type: binding; details: DNMT2Δ47 2 μM, FTAD probe; read-out: affinity (MST KD) against DNMT2Δ47
T5 construct: His-tag; made in house; host or cells: E. coli (host printed only for the crystallization preparation)
T5 sequence (O14717 with tags, fused parts or gaps DEL191-237): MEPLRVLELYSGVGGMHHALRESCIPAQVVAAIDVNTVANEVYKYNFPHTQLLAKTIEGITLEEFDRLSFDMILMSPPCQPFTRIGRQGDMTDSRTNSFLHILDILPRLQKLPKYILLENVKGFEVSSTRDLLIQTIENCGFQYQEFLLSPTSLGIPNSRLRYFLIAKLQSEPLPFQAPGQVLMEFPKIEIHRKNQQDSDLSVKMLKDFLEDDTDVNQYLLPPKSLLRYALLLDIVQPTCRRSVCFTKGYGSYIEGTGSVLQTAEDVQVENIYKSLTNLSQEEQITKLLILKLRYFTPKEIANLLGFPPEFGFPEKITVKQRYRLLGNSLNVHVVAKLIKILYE
Description: as §2

SMILES: Nc1ncn([C@@H]2O[C@H](CO)[C@@H](O)[C@H]2O)c(=O)n1 [azacitidine]
CC50 at 48 h [1]: < 10 µM

SMILES: COc1cccc2c1C(=O)c1c(O)c3c(c(O)c1C2=O)C[C@@](O)(C(=O)CO)C[C@@H]3O[C@H]1C[C@H](N)[C@H](O)[C@H](C)O1 [doxorubicin]
CC50 (MOLM-13 cells): 0.045 ± 0.003 µM

SMILES: CCc1ccc(C(=O)NCC2(C(=O)NC(CC(=O)NCC(=O)NC)Cc3c[nH]c4ccccc34)CC2)cc1 (stereo not drawn) [Compound 3]
Papp (PAMPA) [3]: failed to pass through the artificial membrane; also recorded: below detection limit
IC50 (DNMT2 [4]): 38.9 ± 6.9 µM
FTAD displacement in the MST assay (DNMT2 [5]; DEL hits, result in words): quantitative FTAD displacement
Kd (DNMT2 [5]; FTAD probe 100 nM, 2 μM DNMT2, n.b. = no thermophoresis shift observable): 48 µM and 48.2 µM
Fnorm (% displ.): FTAD displacement (DNMT2 [5]; ligand 100 μM, FTAD probe): 53%
Fnorm (MST screening) (DNMT2 [5]; ligand 100 μM, FTAD probe): 912.1
thermal stabilization of DNMT2 (CETSA) (DNMT2 in MOLM-13 cells): no thermal stabilization occurred
Kd (DNMT2 [6]): 8.4 ± 2.2 µM
Kd (DNMT2 [7]): 5.3 µM and 5.31 µM
Kd (DNMT2Δ47): 102 µM

Now from value to compound, other results behind:

solubility [2]: low solubility
SMILES: CNC(=O)[C@@H](Nc1nc(N2CCN(c3c(C)cccc3C)CC2)nc(N(C)c2cccc(C)c2)n1)[C@@H](C)OC(C)(C)C [Compound 2]

displacement of NonO from immobilized DNMT2 (DNMT2-NonO interaction): NonO could not be displaced
SMILES: Nc1ncnc2c1ncn2[C@@H]1O[C@H](C[C@@H](N)CC[C@H](N)C(=O)O)[C@@H](O)[C@H]1O [sinefungin]
displacement of eIF4E from immobilized DNMT2 (DNMT2-eIF4E interaction): neither NonO nor eIF4E could be displaced
